According to ChEMBL document CHEMBL1124130 (J Med Chem, 1988):

Key:
[1] = target: T1, Muscarinic acetylcholine receptor M1 (Rattus norvegicus, UniProt P08482); experiment: biochemical
T1 sequence (P08482 whole entry): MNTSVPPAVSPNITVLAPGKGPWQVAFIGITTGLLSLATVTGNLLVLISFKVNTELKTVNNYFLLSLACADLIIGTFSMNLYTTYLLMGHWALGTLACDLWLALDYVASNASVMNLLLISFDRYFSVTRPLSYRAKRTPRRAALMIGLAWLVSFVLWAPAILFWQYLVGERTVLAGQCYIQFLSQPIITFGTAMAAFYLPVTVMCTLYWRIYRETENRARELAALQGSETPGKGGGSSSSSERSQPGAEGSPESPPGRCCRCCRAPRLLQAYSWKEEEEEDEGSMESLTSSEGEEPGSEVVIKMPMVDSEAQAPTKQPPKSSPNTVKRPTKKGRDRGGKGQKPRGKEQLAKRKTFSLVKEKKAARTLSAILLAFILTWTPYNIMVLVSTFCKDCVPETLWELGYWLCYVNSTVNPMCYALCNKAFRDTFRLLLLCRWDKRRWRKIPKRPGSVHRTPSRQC
Description: Binding affinity towards Muscarinic acetylcholine receptor M1 of cerebral cortex

[2] = target: T2, Muscarinic acetylcholine receptor M2 (Rattus norvegicus, UniProt P10980); experiment: Binding affinity towards muscarinic receptor of gastric fundus containing Muscarinic acetylcholine receptor M2; type: tissue-based, Stomach
T2 sequence (P10980 whole entry): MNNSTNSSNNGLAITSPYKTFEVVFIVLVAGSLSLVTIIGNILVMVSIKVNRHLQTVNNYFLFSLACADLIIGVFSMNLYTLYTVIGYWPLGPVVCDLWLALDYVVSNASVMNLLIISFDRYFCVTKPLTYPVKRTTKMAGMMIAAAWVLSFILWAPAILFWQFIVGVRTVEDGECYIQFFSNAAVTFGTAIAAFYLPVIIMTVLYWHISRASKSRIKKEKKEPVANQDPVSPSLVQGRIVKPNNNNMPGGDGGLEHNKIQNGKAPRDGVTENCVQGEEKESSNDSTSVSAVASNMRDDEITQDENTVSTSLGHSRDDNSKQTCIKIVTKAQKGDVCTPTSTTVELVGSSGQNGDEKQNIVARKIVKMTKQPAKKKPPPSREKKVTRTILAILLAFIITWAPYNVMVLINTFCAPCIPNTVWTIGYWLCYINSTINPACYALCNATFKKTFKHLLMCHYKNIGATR

[3] = target: T1, Muscarinic acetylcholine receptor M1; experiment: Binding affinity towards muscarinic receptor of cerebral cortex containing Muscarinic acetylcholine receptor M1; type: tissue-based
[4] = Partition coefficient (log P) at pH 7.4; type: physicochemical; settings: octanol/water

SMILES | IC50 [1] [nM] | IC50 [2] [nM] | IC50 [3] [nM] | logD [4]
CN1CCC(CC(=O)N2c3ccccc3C(=O)Nc3cccnc32)CC1 | 70 | 700 | – | –
CN1CCCC(CC(=O)N2c3ccccc3C(=O)Nc3cccnc32)C1 (stereo not drawn) | – | 120 | 100 | –
CN(C)CCCCC(=O)N1c2ccccc2C(=O)Nc2cccnc21 | 600 | 500 | – | –
CN1CCC(OC(=O)N2c3ccccc3C(=O)Nc3cccnc32)CC1 | 100 | 900 | – | –
CN(C)CCCC(=O)N1c2ccccc2C(=O)Nc2cccnc21 | – | 100 | 50 | –
CN(C)CCC(=O)N1c2ccccc2C(=O)Nc2cccnc21 | – | 200 | 200 | –
CN1CCN(C(=O)N2c3ccccc3C(=O)Nc3cccnc32)CC1 | 150 | 600 | – | –
CN1CCN(NC(=O)N2c3ccccc3C(=O)Nc3cccnc32)CC1 | 60 | 900 | – | –
CN1CCCC(CC(=O)N2c3ccccc3C(=O)Nc3cccnc32)CC1 (stereo not drawn) | – | 150 | 100 | –
CN1CCC(CC(=O)N2c3ccccc3C(=O)Nc3cccnc32)C1 (stereo not drawn) | – | 50 | 20 | –
CN1CCN(CC(=O)N2c3ccccc3NC(=O)c3cccnc32)CC1 | 300 | 3000 | – | -0.42
CN1CCCCC1CC(=O)N1c2ccccc2C(=O)Nc2cccnc21 (stereo not drawn) | – | 8 | 10 | –
CN1CCC(NC(=O)N2c3ccccc3C(=O)Nc3cccnc32)CC1 | 200 | 1200 | – | –
CN1CCN(CC(=O)N2c3ccccc3NC(=O)c3cscc32)CC1 | 50 | 350 | – | -0.15
CN1CCN(CC(=O)N2c3ccccc3C(=O)Nc3cccnc32)CC1 [PIRENZEPINE] | – | – | – | -0.64
CN1CCN(CCC(=O)N2c3ccccc3C(=O)Nc3cccnc32)CC1 | – | 12000 | 10000 | –
CN(C)CC(=O)N1c2ccccc2C(=O)Nc2cccnc21 | 1500 | 700 | – | –
CN1CCN(CC(=O)N2c3ccccc3NC(=O)c3ccccc32)CC1 | 23 | 100 | – | 0.11
